Laboratory results reported in paper PMC11947619, “Molecular mechanism of Mad2 conformational conversion promoted by the Mad2‐interaction motif of Cdc20” (Protein Science : A Publication of the Protein Society, 2025).
Residues, ends and D or L forms follow the SMILES beside them.

How the values were obtained:
O‐Mad2^∆C10 = target: T1, O‐Mad2^∆C10 (Homo sapiens, UniProt Q13257); test: NMR titration / HSQC: Cdc20^MIM with O-Mad2^∆C10 (trapped open state); assay type: binding; conditions: 25°C; for binding to Mad2^∆C10: NMR titration / HSQC, two-fold molar excess of peptide, spectra within 15 minutes (Figure S6)
T1 construct: His6-DoubleStrep-TEV (N); made in house
From the text: The cloning of human wild‐type Mad2 and the mutant Mad2^R133A by the USER® method (NEB) into the pRSFDuet‐1 vector (71341‐3, Sigma‐Aldrich) with a His6‐DoubleStrep‐TEV tag at its N‐terminus was described previously (Fischer et al., [2022]). For this study, Mad2 mutants were generated as follows. The Mad2^LL expression construct was generated from the wild‐type Mad2 expression vector (Fischer et al., [2022]) by replacing residues 109–117 (TAKDDSAPR) with GSG. Mad2^ΔC10 and Mad2^Δβ7/β8 were modified from wild‐type Mad2 expression construct by deleting residues 196–205 and 166–205, respectively. Mad2^LL/R133A was modified by substituting Ala for Arg133 from the Mad2^LL expression construct. Mad2^LL/ΔC10 was modified from Mad2^LL by deleting residues 196–205. Mad2^L13A/R133A was generated from the Mad2^R133A mutant. Site‐directed mutagenesis of Mad2 was completed using the QuikChangeTM Lightning Site‐Directed Mutagenesis Kit (Agilent) developed by Stratagene Inc. (La Jolla, CA).
All NMR data on Mad2 were acquired in a 5 mm tube at 25°C in 20 mM HEPES, pH 7.0, 100 mM NaCl, 1 mM TCEP, 5% D2O. Backbone assignment experiments and all spectra, unless otherwise denoted, were collected using an in‐house Bruker 800 MHz Avance III spectrometer, equipped with a triple resonance TCI CryoProbe. 2D spectra were acquired using BEST ^1H,^15N‐TROSY HSQC, with 16 scans and a recycle delay of 400 ms, giving an experimental time of 12 min per spectrum. A Bruker 950 MHz Avance III spectrometer (MRC Biomedical NMR Centre, Francis Crick Institute) was used for the residue conversion rate analysis and the characterization of Mad2 dimers. Most experiments, including all backbone experiments, were acquired with 100 μM samples; the residue‐specific conversion rate analysis and characterization of Mad2 dimers utilized 200 μM samples and 300 μM samples, respectively.
Mad2LL (grey), Mad2∆C10 (green) and Mad2LL/∆C10 (purple). […] 15N{1H}‐ heteronuclear NOE were measured at 298 K. Regions that are highly dynamic are highlighted in yellow. e. […]

O‐Mad2^R133A = target: T2, O‐Mad2^R133A (Homo sapiens, UniProt Q13257, R133A); conditions: 100 μM O-Mad2^R133A, two-fold molar excess peptide, 25°C, 20 mM HEPES pH 7.0, 100 mM NaCl, 1 mM TCEP, 5% D2O; Trp75/Trp167 indole NH reporters; 12 min per spectrum; ref Fischer et al., [2022]; cited from earlier work
T2 construct: unable to collect equivalent data for full‐length O‐Mad2^R133A; His6-DoubleStrep-TEV (N); made in house
Method: In contrast, conversion took ~24 h in the absence of Cdc20^MIM‐111‐138 peptide (Fischer et al., [2022]) (Figures 2c and ...

T1 sequence (Q13257 1-195): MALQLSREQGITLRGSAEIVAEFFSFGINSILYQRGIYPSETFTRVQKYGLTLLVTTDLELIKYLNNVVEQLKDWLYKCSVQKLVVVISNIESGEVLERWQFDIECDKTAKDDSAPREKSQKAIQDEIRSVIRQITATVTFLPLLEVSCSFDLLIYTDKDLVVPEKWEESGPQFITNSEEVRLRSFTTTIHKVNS
T2 sequence (Q13257 whole entry R133A): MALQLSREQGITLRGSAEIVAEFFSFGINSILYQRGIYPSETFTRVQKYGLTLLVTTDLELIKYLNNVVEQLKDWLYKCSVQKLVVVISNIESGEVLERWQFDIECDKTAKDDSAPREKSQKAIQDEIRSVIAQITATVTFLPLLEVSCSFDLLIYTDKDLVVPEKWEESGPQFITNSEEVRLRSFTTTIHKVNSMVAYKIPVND

## CC[C@H](C)[C@H](NC(=O)[C@H](CCCCN)NC(=O)[C@H](C)NC(=O)[C@H](CCC(=O)O)NC(=O)[C@H](CCC(=O)O)NC(=O)[C@@H](NC(=O)[C@H](CC(=O)O)NC(=O)[C@@H](N)Cc1ccccc1)C(C)C)C(=O)N[C@@H](CC(C)C)C(=O)N[C@@H](CCCNC(=N)N)C(=O)N[C@@H](CC(C)C)C(=O)N[C@@H](CO)C(=O)NCC(=O)N[C@@H](CCCCN)C(=O)N1CCC[C@H]1C(=O)N[C@@H](CCC(N)=O)C(=O)N[C@@H](CC(N)=O)C(=O)N[C@@H](C)C(=O)N1CCC[C@H]1C(=O)N[C@@H](CCC(=O)O)C(=O)NCC(=O)N[C@@H](Cc1ccc(O)cc1)C(=O)N[C@@H](CCC(N)=O)C(=O)N[C@@H](CC(N)=O)C(=O)N[C@@H](CCCNC(=N)N)C(=O)N[C@@H](CC(C)C)C(=O)N[C@@H](CCCCN)C(=O)N[C@H](C(=O)N[C@@H](CC(C)C)C(=O)N[C@@H](Cc1ccc(O)cc1)C(=O)O)C(C)C [Cdc20^MIM‐123‐152] (H-FDVEEAKILRLSGKPQNAPEGYQNRLKVLY-OH; N-terminus and C-terminus assumed)
O‐Mad2^∆C10
  binding to Mad2^∆C10: No binding

## EHQKAWALNLNGFDVEEAKILRLSGKPQ [Cdc20^MIM‐111‐138, Cdc20^MIM peptide spanning Cdc20 residues 111–138]
O‐Mad2^∆C10
  binding to Mad2^∆C10: No binding
O‐Mad2^∆C10; O-Mad2^∆C10 100 μM, two-fold molar excess peptide, 24 h time course
  O- to C-Mad2 conversion, in words: eliminated
O‐Mad2^R133A
  time to complete Mad2 conversion: less than 30 min
